Data as given in US20260053834A1, “COVALENT MODIFIERS OF AKT1 AND USES THEREOF” (Terremoto Biosciences, Inc., priority 2023, published 2026).
Read-outs that look alike come from different tables or passages of the source.

How the values were obtained:
AKT1 E17K = molecular target: T1, AKT1 E17K (Homo sapiens, UniProt P31749, E17K); assay: Live cell target engagement by NanoBRET competitive probe displacement, AKT1 E17K; type: binding; conditions: transfected HEK293 cells, 2 h at 37° C., read-out: AKT1 E17K IC50: GeoMean IC50
T1 construct: expressed in transfected cells; host or cells: HEK293

AKT1 WT = molecular target: T2, AKT1 WT (Homo sapiens, UniProt P31749); assay: Live cell target engagement by NanoBRET competitive probe displacement, AKT1 WT; type: binding; conditions: transfected HEK293 cells, 2 h at 37° C., read-out: AKT1 WT IC50: GeoMean IC50
T2 construct: expressed in transfected cells; host or cells: HEK293

AKT2 = molecular target: T3, AKT2 (Homo sapiens, UniProt P31751); assay: Live cell target engagement by NanoBRET competitive probe displacement, AKT2; type: binding; conditions: transfected HEK293 cells, 2 h at 37° C., read-out: AKT2 IC50: GeoMean IC50
T3 construct: expressed in transfected cells; host or cells: HEK293

[1] = test system: LAPC4 prostate cancer cells, which express the AKT1 E17K allele; assay: Antiproliferative effects in LAPC4 cells (CellTiter Glo, 72 h); type: cell-based; conditions: read-out: LAPC4 proliferation IC50: GeoMean IC50
How it was run: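 Cells grown in IMDM with 12% FBS, seeded at 1,000 cells/well and treated with compound dilutions in DMSO for 72 h. Intracellular ATP read by luminescence. IC50 from a log(inhibitor) vs. response Hill fit.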

T2 sequence (P31749 whole entry): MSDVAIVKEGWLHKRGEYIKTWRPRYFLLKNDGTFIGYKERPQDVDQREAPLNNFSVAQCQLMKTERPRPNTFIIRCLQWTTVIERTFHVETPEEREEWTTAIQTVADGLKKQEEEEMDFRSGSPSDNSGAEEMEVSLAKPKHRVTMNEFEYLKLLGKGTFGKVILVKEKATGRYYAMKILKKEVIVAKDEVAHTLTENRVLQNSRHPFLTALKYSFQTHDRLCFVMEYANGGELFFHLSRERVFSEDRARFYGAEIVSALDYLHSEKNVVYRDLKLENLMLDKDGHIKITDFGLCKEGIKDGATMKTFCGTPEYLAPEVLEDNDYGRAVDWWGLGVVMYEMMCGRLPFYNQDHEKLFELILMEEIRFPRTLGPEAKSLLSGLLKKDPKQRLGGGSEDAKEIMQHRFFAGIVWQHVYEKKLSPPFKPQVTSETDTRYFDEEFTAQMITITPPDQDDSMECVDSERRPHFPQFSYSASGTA
T1 sequence (P31749 whole entry E17K): as the sequence (P31749 whole entry) above, with E17K counted along it
T3 sequence (P31751 whole entry): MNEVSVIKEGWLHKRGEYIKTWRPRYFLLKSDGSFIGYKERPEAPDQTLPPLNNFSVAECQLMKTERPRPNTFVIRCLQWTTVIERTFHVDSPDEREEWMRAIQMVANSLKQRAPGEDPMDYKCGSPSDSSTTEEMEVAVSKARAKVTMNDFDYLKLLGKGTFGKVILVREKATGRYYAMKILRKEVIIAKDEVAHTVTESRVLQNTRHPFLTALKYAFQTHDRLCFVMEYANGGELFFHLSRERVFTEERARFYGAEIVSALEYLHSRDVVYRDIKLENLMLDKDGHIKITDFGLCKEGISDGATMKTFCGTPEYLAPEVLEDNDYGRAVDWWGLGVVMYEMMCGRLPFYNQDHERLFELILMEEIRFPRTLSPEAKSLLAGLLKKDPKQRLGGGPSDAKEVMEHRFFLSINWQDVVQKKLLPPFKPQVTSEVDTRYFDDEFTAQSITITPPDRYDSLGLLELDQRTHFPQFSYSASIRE

| Compound | IC50 (AKT1 E17K) [nM] | IC50 (AKT1 WT) [nM] | IC50 (AKT2) [nM] | IC50 ([1]; Homo sapiens, LAPC4, 72 h) [nM] | IC50 [1] [nM] |
| --- | --- | --- | --- | --- | --- |
| Nc1ncccc1-c1nc2cc(O)c(-n3cccn3)nc2n1-c1ccc2c(c1)CC[C@@H]2NC(=O)c1cc(C=O)c(O)cc1F [Example 226, N-[(1S)-5-[2-(2-aminopyridin-3-yl)-6-hydroxy-5-(pyrazol-1-yl)imidazo[4,5-b]pyridin-3-yl]-2,3-dihydro-1H-inden-1-yl]-2-fluoro-5-formyl-4-hydroxybenzamide] | 10 to 100 | 10 to 100 | 100 to 2000 | 10 to 100 |  |
| CC(=O)Nc1ccc(C(=O)N[C@H]2CCc3cc(-n4c(-c5cccnc5N)nc5ccc(-n6cccn6)nc54)ccc32)cc1C=O [Example 56, N-[(1S)-5-[2-(2-aminopyridin-3-yl)-5-(pyrazol-1-yl)imidazo[4,5-b]pyridin-3-yl]-2,3-dihydro-1H-inden-1-yl]-4-acetamido-3-formylbenzamide] | < 10 | 10 to 100 | 100 to 2000 | 10 to 100 |  |
| Cn1cc(-c2ccc3nc(-c4cccnc4N)n(-c4ccc5c(c4)CC[C@@H]5NC(=O)c4ccc(O)c(C=O)c4)c3n2)nn1 [Example 72, (S)—N-(5-(2-(2-aminopyridin-3-yl)-5-(1-methyl-1H-1,2,3-triazol-4-yl)-3H-imidazo[4,5-b]pyridin-3-yl)-2,3-dihydro-1H-inden-1-yl)-3-formyl-4-hydroxybenzamide] | 10 to 100 | 10 to 100 | 100 to 2000 | 100 to 2000 |  |
| Nc1ncccc1-c1nc2ccc(-n3cccn3)nc2n1-c1ccc2c(c1)CC[C@@H]2NC(=O)Cc1ccc(C=O)c(O)c1F [Example 216, (S)—N-(5-(2-(2-aminopyridin-3-yl)-5-(1H-pyrazol-1-yl)-3H-imidazo[4,5-b]pyridin-3-yl)-2,3-dihydro-1H-inden-1-yl)-2-(2-fluoro-4-formyl-3-hydroxyphenyl)acetamide; trifluoroacetic acid] | 10 to 100 | 100 to 2000 | 100 to 2000 | 100 to 2000 |  |
| CC(=O)Nc1ccc(C(=O)N[C@H]2CCc3cc(-n4c(-c5cccnc5N)nc5ccc(-c6ccccc6)nc54)ccc32)cc1C=O [Example 14, N-[(1S)-5-[2-(2-aminopyridin-3-yl)-5-phenylimidazo[4,5-b]pyridin-3-yl]-2,3-dihydro-1H-inden-1-yl]-4-acetamido-3-formylbenzamide] | < 10 | < 10 | 10 to 100 | < 10 |  |
| Nc1ncccc1-c1nc2ccc(C3CC3)nc2n1-c1ccc2c(c1)CC[C@@H]2NC(=O)c1ccc(O)c(C=O)c1 [Example 49, N-[(1S)-5-[2-(2-aminopyridin-3-yl)-5-cyclopropylimidazo[4,5-b]pyridin-3-yl]-2,3-dihydro-1H-inden-1-yl]-3-formyl-4-hydroxybenzamide] | 100 to 2000 | 100 to 2000 | ≥ 2000 | 100 to 2000 |  |
| CN(C)c1ccn(-c2ccc3nc(-c4cccnc4N)n(-c4ccc5c(c4)CC[C@@H]5NC(=O)c4ccc(O)c(C=O)c4)c3n2)n1 [Example 114, (S)—N-(5-(2-(2-aminopyridin-3-yl)-5-(3-(dimethylamino)-1H-pyrazol-1-yl)-3H-imidazo[4,5-b]pyridin-3-yl)-2,3-dihydro-1H-inden-1-yl)-3-formyl-4-hydroxybenzamide] | 10 to 100 | 10 to 100 | 100 to 2000 | 10 to 100 |  |
| Nc1ncccc1-c1nc2ccc(-c3ccccc3)nc2n1-c1ccc2c(c1)CC[C@@H]2NC(=O)c1ccc(C=O)c(O)c1F [Example 31, N-[(1S)-5-[2-(2-aminopyridin-3-yl)-5-phenylimidazo[4,5-b]pyridin-3-yl]-2,3-dihydro-1H-inden-1-yl]-2-fluoro-4-formyl-3-hydroxybenzamide] | 10 to 100 | 10 to 100 | 100 to 2000 | 100 to 2000 |  |
| Nc1ncccc1-c1nc2ccc(-n3cccn3)nc2n1-c1ccc2c(c1)CC[C@@H]2NC(=O)c1cc(C=O)c(O)c2scnc12 [Example 242, (S)—N-(5-(2-(2-aminopyridin-3-yl)-5-(1H-pyrazol-1-yl)-3H-imidazo[4,5-b]pyridin-3-yl)-2,3-dihydro-1H-inden-1-yl)-6-formyl-7-hydroxybenzo[d]thiazole-4-carboxamide] | 10 to 100 | 100 to 2000 | ≥ 2000 | 100 to 2000 |  |
| COc1c(O)c(C=O)cc(C(=O)N[C@H]2CCc3cc(-n4c(-c5cccnc5N)nc5ccc(-n6cccn6)nc54)ccc32)c1F [Example 214, N-[(1S)-5-[2-(2-aminopyridin-3-yl)-5-(pyrazol-1-yl)imidazo[4,5-b]pyridin-3-yl]-2,3-dihydro-1H-inden-1-yl]-2-fluoro-5-formyl-4-hydroxy-3-methoxybenzamide] | < 10 | 10 to 100 | 100 to 2000 | 10 to 100 |  |
| Nc1ncccc1-c1nc2ccc(-n3cccn3)nc2n1-c1cc(F)c2c(c1)CC[C@@H]2NC(=O)c1ccc(O)c(C=O)c1 [Example 189, N-[(1S)-5-[2-(2-aminopyridin-3-yl)-5-(pyrazol-1-yl)imidazo[4,5-b]pyridin-3-yl]-7-fluoro-2,3-dihydro-1H-inden-1-yl]-3-formyl-4-hydroxybenzamide] | 100 to 2000 | 100 to 2000 | ≥ 2000 | ≥ 2000 |  |
| Nc1ncccc1-c1nc2ccc(-c3cccc(F)c3)nc2n1-c1ccc2c(c1)CC[C@@H]2NC(=O)c1ccc(O)c(C=O)c1 [Example 26, N-[(1S)-5-[2-(2-aminopyridin-3-yl)-5-(3-fluorophenyl)imidazo[4,5-b]pyridin-3-yl]-2,3-dihydro-1H-inden-1-yl]-3-formyl-4-hydroxybenzamide] | 10 to 100 | 100 to 2000 | 100 to 2000 | 100 to 2000 |  |
| Nc1ncccc1-c1nc2ccc(-c3ccccc3)nc2n1-c1ccc2c(c1)CC[C@@H]2NC(=O)c1ccc(O)c(C=O)c1 [Example 5, (S)—N-(5-(2-(2-aminopyridin-3-yl)-5-phenyl-3H-imidazo[4,5-b]pyridin-3-yl)-2,3-dihydro-1H-inden-1-yl)-3-formyl-4-hydroxybenzamide] | 10 to 100 | 10 to 100 | 10 to 100 | 10 to 100 |  |
| Nc1ncccc1-c1nc2ccc(-n3cccn3)nc2n1-c1ccc2c(c1)CC[C@@H]2NC(=O)c1cccc(C=O)c1 [Example 142, (S)—N-(5-(2-(2-aminopyridin-3-yl)-5-(1H-pyrazol-1-yl)-3H-imidazo[4,5-b]pyridin-3-yl)-2,3-dihydro-1H-inden-1-yl)-3-formylbenzamide] | 10 to 100 | < 10 | 10 to 100 | 100 to 2000 |  |
| COCc1cc(-n2cccn2)nc2c1nc(-c1cccnc1N)n2-c1ccc2c(c1)CC[C@@H]2NC(=O)c1ccc(O)c(C=O)c1 [Example 210, N-[(1S)-5-[2-(2-aminopyridin-3-yl)-7-(methoxymethyl)-5-(pyrazol-1-yl)imidazo[4,5-b]pyridin-3-yl]-2,3-dihydro-1H-inden-1-yl]-3-formyl-4-hydroxybenzamide] | 10 to 100 | 10 to 100 | 100 to 2000 | 100 to 2000 |  |
| Nc1ncccc1-c1nc2ccc(-c3ncco3)nc2n1-c1ccc2c(c1)CC[C@@H]2NC(=O)c1cc(C=O)c(O)c(F)c1F [Example 150, N-[(1S)-5-[2-(2-aminopyridin-3-yl)-5-(1,3-oxazol-2-yl)imidazo[4,5-b]pyridin-3-yl]-2,3-dihydro-1H-inden-1-yl]-2,3-difluoro-5-formyl-4-hydroxybenzamide] | 10 to 100 | 10 to 100 | 100 to 2000 | 10 to 100 |  |
| COc1cc(O)c(C=O)cc1C(=O)N[C@H]1CCc2cc(-n3c(-c4cccnc4N)nc4ccc(-c5ccccc5)nc43)ccc21 [Example 17, N-[(1S)-5-[2-(2-aminopyridin-3-yl)-5-phenylimidazo[4,5-b]pyridin-3-yl]-2,3-dihydro-1H-inden-1-yl]-5-formyl-4-hydroxy-2-methoxybenzamide] | 100 to 2000 | 100 to 2000 | 100 to 2000 | 100 to 2000 |  |
| N#Cc1ccn(-c2ccc3nc(-c4cccnc4N)n(-c4ccc5c(c4)CC[C@@H]5NC(=O)c4ccc(O)c(C=O)c4)c3n2)n1 [Example 108, N-[(1S)-5-[2-(2-aminopyridin-3-yl)-5-(3-cyanopyrazol-1-yl)imidazo[4,5-b]pyridin-3-yl]-2,3-dihydro-1H-inden-1-yl]-3-formyl-4-hydroxybenzamide] | 10 to 100 | 100 to 2000 | ≥ 2000 | 100 to 2000 |  |
| Nc1ncccc1-c1nc2ccc(-n3cccn3)nc2n1-c1ccc2c(c1)CC(F)[C@@H]2NC(=O)c1cc(C=O)c(O)cc1F (single isomer, unassigned) [Example 259, N-((1R,2S*)-5-(2-(2-aminopyridin-3-yl)-5-(1H-pyrazol-1-yl)-3H-imidazo[4,5-b]pyridin-3-yl)-2-fluoro-2,3-dihydro-1H-inden-1-yl)-2-fluoro-5-formyl-4-hydroxybenzamide] | 10 to 100 | 10 to 100 | 100 to 2000 |  | 10 to 100 |
| N#Cc1cc(O)c(C=O)cc1C(=O)N[C@H]1CCc2cc(-n3c(-c4cccnc4N)nc4ccc(-n5cccn5)nc43)ccc21 [Example 250, (S)—N-(5-(2-(2-aminopyridin-3-yl)-5-(1H-pyrazol-1-yl)-3H-imidazo[4,5-b]pyridin-3-yl)-2,3-dihydro-1H-inden-1-yl)-2-cyano-5-formyl-4-hydroxybenzamide] | ≥ 2000 | ≥ 2000 | ≥ 2000 | ≥ 2000 |  |
